Consider 2 molecules from patent publication US20190314197A1, “Topical Ocular Delivery Methods and Devices for Use in the Same” (Kedalion Therapeutics, Inc., priority 2018, published 2019).

Common to all, as to format: in vivo, human
Assay [1] is described as follows: Trial 2: intraocular pressure reduction (Goldmann applanation tonometry) in primary open angle glaucoma patients. As to conditions: for average IOP decrease measured per patient: approximately 8 hours after dosing. The method, then: Trial 2 compared the efficacy (dose volume equivalence) of 0.005% w/v latanoprost for intraocular pressure reduction when delivered via AcuStream™ (pre-trial calibration volume=9.2 μl) versus the standard eye dropper for topical drug delivery (approximate volume=30 μl).
Patients included in Trial 2 have previously been diagnosed with primary open angle glaucoma on the basis of intraocular pressure and visual field testing, fundus examination or optical coherence tomography (OCT) data and are currently on prostaglandin analog medical therapy. Patients with corneal abnormalities that would interfere with accurate IOP measurements with applanation tonometry, use of an oral or topical ophthalmic steroids within the past 14 days from screening date, any active ocular surface or anterior segment disease, or progressive field loss during the past year were excluded from the study. Thirteen men and five women participated in the trial.
Recruited patients were taken off medical therapy for a period of 3-4 weeks prior to the study to allow drug “wash out”, thereby elevating their IOPs to pre-treatment levels which was confirmed by examination of the patients' chart history. Patients were randomly assigned as “test” (AcuStream™), or “control” (standard eye dropper). The mean age of the control group and test group were 61.0 years and 65.2 years, respectively.
The patients assigned to either the “test” or “control” group by means of a random numbers table in order to mitigate any potential cross-over effects that could confound data interpretation. An odd number dictated that the patient was in the test group, while even-numbered patients were in the control group.
After performing slit lamp examinations on each patient to verify eligibility and obtaining informed consent, intraocular pressure (IOP) was measured by a sole experienced examiner who was blind to the randomized conditions. A pre-calibrated Goldmann applanation tonometer coupled to a Haag-Streit 900 EQ slit lamp was used to conduct baseline IOP measurements. Once baseline IOP data were verified to be equivalent to pre-medical therapy levels (based on patient's treatment history), the patient then continued to the dosing stage of the study.
Latanoprost solution was administered by a sole ophthalmologist to both eyes of each patient, based on the pre-determined randomized condition.

Assay [2] can be described thus: Near visual acuity (Snellen card at 40 cm) after pilocarpine micro-dose (presbyopia). As to conditions: dosed eye. As for the experimental part:
(§1) A 10 μl micro-dose of a 1% pilocarpine solution was self-administered using an electromagnetic actuated fluid delivery device, e.g., as described above, by three subjects to their own eye. The age range of the subjects was 52 years to 68 years, and all subjects were male. The pilocarpine micro-dose was self-administered by the subjects.
(§2) Baseline, pre-dose values of pupil diameter and near visual acuity in both eyes prior to dosing was measured for all subjects, and then following the baseline measurements, the subjects were dosed in only one eye (the eye with the poorer visual acuity) with the micro-dose pilocarpine solution. Approximately 45 to 60 minutes after dosing, pupil diameter and near visual acuity were again tested. Near visual acuity was measured using a Snellen card at a distance of 40 cm. A tabulation of results is given below in Table A.

Assay [3] is described as follows: Pupil diameter after self-administered pilocarpine micro-dose (presbyopia). As to conditions: non-dosed fellow eye. The method, then: as §1, §2

On to `CC(C)OC(=O)CCC/C=C\C[C@@H]1[C@@H](CC[C@@H](O)CCc2ccccc2)[C@H](O)C[C@@H]1O` [latanoprost], for which the “average IOP decrease measured per patient” value in assay [1] (AcuStream (test group)) came to 5.0 mm Hg; in assay [1] (standard eye dropper (control group)), 4.3 mm Hg. In addition, the “difference in IOP reduction between AcuStream and standard dropper groups” value in assay [1] (Wilcoxon Ranked Sum test, p=0.3447) is given as “no statistically significant differences”. Also, in assay [1] (control group (standard dropper), OD, baseline IOP 30 mm Hg), the “post-instillation IOP, single patient outlier” value worked out at 17 mm Hg. Also, the “equivalence of 9.2 μl AcuStream dose volume to 30 μl standard eye drops, intraocular pressure reduction” value in assay [1] (human, in vivo) is “pharmacodynamic equivalence”.
Consider `CC[C@@H]1C(=O)OC[C@@H]1Cc1cncn1C` [pilocarpine], for which the “mean improvement in near visual acuity” value in assay [2] (all subjects) is 2 lines. For the same molecule, the “# of lines change in visual acuity” value in assay [2] (mean of 3 subjects) is reported as 2 lines. The “miotic effect in non-dosed eye” value in assay [3] is listed as “no miotic effect”.
